The source made the active and inactive calls.
How the values were obtained:
[1] = Trypanosoma cruzi growth suppression in host cells – NIH3T3 host cells, beta-gal luminescence, confirmation (AID 2044); type: functional, cell-based;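 also: intracellular parasites grown in NIH/3T3 mouse fibroblasts as host cells; luminescent beta-galactosidase reporter signal from transgenic T. cruzi replicating inside host cells; inhibitors lower the luminescence signal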
[2] = NIH3T3 cell viability loss – ATP luminescence, mouse fibroblasts, counter-screen, dose response (AID 2010); type: functional, cell-based;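 also: cells exposed to compound for about 90 hours before reading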
[3] = test system: Streptococcus; assay: GAS UMAA2166 growth inhibition – luminescence, BacTiterGlo, counter-screen for streptokinase expression inhibitor project, dose response (AID 1915); type: functional, organism-based;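 also: potency for reduction of bacterial viability or growth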
[4] = test system: Streptococcus sp. 'group A'; assay: Streptococcus pyogenes SK(-)GAS viability under kanamycin – luminescence, BacTiterGlo, confirmation, counter-screen for streptokinase expression inhibitor project, dose response (AID 1900); type: functional, organism-based
[5] = viability loss in HepG2 hepatoma cells – cell-based, ATP luminescence, cherry-pick, activator set 2, cytotoxicity control, dose response (AID 1053143); type: functional
[6] = HIV-1 Vif–A3G interaction blockers – biochemical, TR-FRET, GST-Vif 1-94, biotin-A3G peptide, dose response retest, primary screen (AID 1117319); type: functional;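 also: TR-FRET signal of purified GST-Vif binding a biotinylated A3G peptide; inhibitors lower the FRET signal by blocking Vif and A3G binding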
[7] = molecular target: T1, Cytochrome P450 1A2 (Homo sapiens, UniProt P05177);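 also: PubChem cytochrome P450 panel assay, CYP1A2 panel member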
T1 sequence (P05177 whole entry): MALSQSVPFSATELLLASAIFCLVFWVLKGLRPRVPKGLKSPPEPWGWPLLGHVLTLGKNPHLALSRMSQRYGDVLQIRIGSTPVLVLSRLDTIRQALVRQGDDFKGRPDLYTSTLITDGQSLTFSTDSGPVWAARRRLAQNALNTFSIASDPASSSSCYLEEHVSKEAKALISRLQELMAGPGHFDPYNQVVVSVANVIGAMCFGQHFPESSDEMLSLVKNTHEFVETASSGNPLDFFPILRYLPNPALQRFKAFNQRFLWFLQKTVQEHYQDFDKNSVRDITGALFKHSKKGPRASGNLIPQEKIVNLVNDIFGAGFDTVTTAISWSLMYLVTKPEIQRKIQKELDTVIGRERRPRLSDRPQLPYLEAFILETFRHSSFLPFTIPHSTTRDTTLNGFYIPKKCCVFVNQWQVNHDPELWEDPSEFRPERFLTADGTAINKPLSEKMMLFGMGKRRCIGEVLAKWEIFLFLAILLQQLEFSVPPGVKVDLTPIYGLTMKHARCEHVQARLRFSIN

[8] = molecular target: T2, Leucine aminopeptidase (Plasmodium falciparum 3D7, UniProt Q8IL11); assay: P. falciparum M17LAP inhibitors, primary screen, biochemical, fluorogenic H-Leu-NHMec substrate, 1536-well (AID 1619); type: functional
T2 sequence (Q8IL11 whole entry): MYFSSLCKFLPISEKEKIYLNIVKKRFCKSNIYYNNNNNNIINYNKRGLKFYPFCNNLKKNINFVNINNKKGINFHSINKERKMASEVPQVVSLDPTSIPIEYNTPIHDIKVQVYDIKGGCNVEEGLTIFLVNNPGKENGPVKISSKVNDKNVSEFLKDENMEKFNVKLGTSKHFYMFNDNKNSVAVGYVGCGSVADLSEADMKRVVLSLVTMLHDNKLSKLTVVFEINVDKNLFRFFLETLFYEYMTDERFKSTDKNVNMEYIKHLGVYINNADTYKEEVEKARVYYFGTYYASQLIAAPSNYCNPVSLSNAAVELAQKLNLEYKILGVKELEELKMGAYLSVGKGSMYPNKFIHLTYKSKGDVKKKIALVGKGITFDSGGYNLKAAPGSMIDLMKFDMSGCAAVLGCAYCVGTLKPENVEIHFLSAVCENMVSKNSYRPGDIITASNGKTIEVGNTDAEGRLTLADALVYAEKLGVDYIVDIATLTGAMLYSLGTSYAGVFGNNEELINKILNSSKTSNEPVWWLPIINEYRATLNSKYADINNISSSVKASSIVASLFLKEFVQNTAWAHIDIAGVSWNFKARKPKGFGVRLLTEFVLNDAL

[9] = IC50 of Artemis nuclease activity blockers – biochemical, fluorescence intensity, dose response (AID 720701); type: functional;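 also: Artemis endonuclease enzyme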
[10] = molecular target: Cytochrome P450 3A4 (Homo sapiens, UniProt P08684);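 also: CYP3A4 tested as one member of a cytochrome P450 panel screen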
Cytochrome P450 3A4, sequence (P08684 whole entry): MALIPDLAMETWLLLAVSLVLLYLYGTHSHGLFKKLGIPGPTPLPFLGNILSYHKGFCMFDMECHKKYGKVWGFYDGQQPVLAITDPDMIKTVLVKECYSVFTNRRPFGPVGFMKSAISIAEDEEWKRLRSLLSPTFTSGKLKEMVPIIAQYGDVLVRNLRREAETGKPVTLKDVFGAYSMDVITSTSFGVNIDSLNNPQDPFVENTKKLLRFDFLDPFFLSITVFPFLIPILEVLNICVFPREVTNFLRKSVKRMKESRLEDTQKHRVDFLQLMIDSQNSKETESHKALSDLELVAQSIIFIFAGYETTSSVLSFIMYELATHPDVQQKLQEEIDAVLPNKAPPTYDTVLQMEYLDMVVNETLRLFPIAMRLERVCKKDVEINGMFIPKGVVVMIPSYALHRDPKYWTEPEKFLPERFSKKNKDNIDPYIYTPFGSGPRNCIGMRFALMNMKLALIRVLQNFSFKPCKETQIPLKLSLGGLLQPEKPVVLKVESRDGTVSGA

[11] = Luminescence Cell-Based Dose Response to Identify Activators of Luciferase Translation or Activity in H4-C Neuroglioblastoma Cells. [Related pubchem assays: 1829 (Project Summary), 1814 (Primary HTS)]; type: functional
[12] = inhibitors of non-replicating M. tuberculosis, dose response, luciferase, dry powder (AID 651620); type: functional; details: Mycobacterium tuberculosis
[13] = inhibitors of non-replicating M. tuberculosis, dose response, luciferase, dry powder (AID 651619); type: functional; details: Mycobacterium tuberculosis
[14] = Luminescence Cell-Based Dose Response HTS to Identify Activators of Luciferase Translation or Activity in H4 […] Cells. [Related pubchem assays: 1829 (Project Summary), 1814 (Primary HTS)]; type: functional
[15] = molecular target: Cytochrome P450 2C9 (Homo sapiens, UniProt P11712)
Cytochrome P450 2C9, sequence (P11712 whole entry): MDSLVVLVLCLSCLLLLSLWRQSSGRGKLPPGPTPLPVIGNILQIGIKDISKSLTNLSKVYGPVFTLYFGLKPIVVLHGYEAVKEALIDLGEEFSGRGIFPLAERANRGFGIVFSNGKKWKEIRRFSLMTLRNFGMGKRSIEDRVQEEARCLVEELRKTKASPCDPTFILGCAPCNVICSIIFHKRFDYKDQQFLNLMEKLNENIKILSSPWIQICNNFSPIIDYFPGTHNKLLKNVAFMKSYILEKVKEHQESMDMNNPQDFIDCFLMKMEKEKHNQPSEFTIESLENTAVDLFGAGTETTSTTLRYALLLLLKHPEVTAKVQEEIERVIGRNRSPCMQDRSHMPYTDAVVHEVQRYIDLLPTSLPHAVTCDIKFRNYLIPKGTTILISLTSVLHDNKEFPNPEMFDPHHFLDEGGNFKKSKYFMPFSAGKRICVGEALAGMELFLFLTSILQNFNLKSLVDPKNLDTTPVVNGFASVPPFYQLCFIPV

[16] = Luminescence Cell-Based Dose Confirmation to Identify Activators of 5'UTR Stem-Loop Driven Alpha-Synuclein mRNA Translation in H4 Neuroglioblastoma Cells. [Related pubchem assays: 1829 (Project Summary), 1814 (Primary HTS)]; type: functional
[17] = Luminescence Cell-Based Dose Response to Identify Activators of 5'UTR Stem-Loop Driven Prion Protein mRNA Translation in H4-C Neuroglioblastoma Cells. [Related pubchem assays: 1829 (Project Summary), 1814 (Primary HTS)]; type: functional
[18] = viability loss in HEK293T cells – cell-based, CellTiter-Glo luminescence, dry powder, set 6, cytotoxicity control, dose response (AID 651949); type: functional; details: HEK293
[19] = growth inhibition of replicating M. tuberculosis, dose response, counter-screen, dry powder, IC90 (AID 651617); type: functional; details: Mycobacterium tuberculosis
[20] = molecular target: Potassium channel subfamily K member 9 (Homo sapiens, UniProt Q9NPC2); assay: KCNK9 flux blockade, concentration-response – cell-based, FluxOR thallium flux, selectivity assay for TASK1 inhibitor project, SAR follow-up (AID 652211); type: functional;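 also: potency is for inhibitors of the channel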
Potassium channel subfamily K member 9, sequence (Q9NPC2 whole entry): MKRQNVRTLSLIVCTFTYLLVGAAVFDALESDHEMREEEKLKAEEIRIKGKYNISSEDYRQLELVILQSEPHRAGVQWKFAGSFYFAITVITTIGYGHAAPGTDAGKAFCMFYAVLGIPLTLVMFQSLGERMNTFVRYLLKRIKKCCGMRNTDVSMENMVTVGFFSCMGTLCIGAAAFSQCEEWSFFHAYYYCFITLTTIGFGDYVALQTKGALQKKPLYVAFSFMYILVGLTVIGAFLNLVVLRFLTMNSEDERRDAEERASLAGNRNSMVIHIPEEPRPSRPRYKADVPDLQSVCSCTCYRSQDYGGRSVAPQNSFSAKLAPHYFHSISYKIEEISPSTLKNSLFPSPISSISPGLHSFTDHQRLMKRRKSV

[21] = molecular target: Potassium channel subfamily K member 3 (Homo sapiens, UniProt O14649); assay: inhibition of human KCNK3 channel flux – CHO cells, FluxOR thallium flux, SAR follow-up (AID 652212); type: functional
Potassium channel subfamily K member 3, sequence (O14649 whole entry): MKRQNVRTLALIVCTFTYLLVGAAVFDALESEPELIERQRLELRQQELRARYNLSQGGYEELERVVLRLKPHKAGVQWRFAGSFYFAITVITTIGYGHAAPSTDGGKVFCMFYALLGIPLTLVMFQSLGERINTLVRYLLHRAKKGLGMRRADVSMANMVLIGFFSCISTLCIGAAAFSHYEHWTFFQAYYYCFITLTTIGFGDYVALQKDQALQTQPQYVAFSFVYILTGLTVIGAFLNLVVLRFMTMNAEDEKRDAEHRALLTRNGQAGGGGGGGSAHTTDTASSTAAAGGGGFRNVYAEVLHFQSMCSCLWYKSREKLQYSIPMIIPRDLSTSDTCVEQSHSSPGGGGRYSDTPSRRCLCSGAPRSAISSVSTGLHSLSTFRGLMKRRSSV

[22] = molecular target: COUP transcription factor 2 (Homo sapiens, UniProt P24468); assay: Luminescence-based cell-based high throughput dose response assay to identify inhibitors of COUP-TFII (NR2F2).; type: functional;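 also: HEK293 cells transiently cotransfected with COUP-TFII expression vector and reporter; luciferase reporter luminescence driven by COUP-TFII from the pX2-168 reporter plasmid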
COUP transcription factor 2, sequence (P24468 whole entry): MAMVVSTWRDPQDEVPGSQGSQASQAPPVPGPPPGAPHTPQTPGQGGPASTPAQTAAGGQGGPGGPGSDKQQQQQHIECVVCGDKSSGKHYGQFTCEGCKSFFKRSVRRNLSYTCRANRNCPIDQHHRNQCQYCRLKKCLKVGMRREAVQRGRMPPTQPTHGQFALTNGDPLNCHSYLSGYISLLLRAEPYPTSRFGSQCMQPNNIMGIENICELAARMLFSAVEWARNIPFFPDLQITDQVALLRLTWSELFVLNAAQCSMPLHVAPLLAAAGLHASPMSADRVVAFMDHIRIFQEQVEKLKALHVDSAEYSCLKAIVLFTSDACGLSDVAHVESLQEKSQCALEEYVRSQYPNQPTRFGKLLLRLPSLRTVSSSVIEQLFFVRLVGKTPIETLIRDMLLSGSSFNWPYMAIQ

[23] = general mammalian cell viability loss – inhibitor set, cherry-pick, set 2, cytotoxicity control for miR-122 modulator project, dose response (AID 720697); type: functional, cell-based
[24] = reduced cellular PGC1a acetyl-lysine signal – cell-based, cherry-picked samples, dose response (AID 720514); type: functional;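 also: potency may reflect raised or lowered acetylation signal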
[25] = OVCAR8 cell viability loss – plate reader, dry powder samples, PAX8 project, dose response (AID 743197); type: functional, cell-based; details: OVCAR-8
[26] = molecular target: Paired box protein Pax-8 (Homo sapiens, UniProt Q06710); assay: PAX8 transcriptional activity inhibition in RMG-I – RMG-I cells, luciferase, cherry-pick, dose response (AID 687027); type: functional, cell-based;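 also: luciferase reporter driven by Pax8 target thyroperoxidase promoter measured by SteadyGlo luminescence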
Paired box protein Pax-8, sequence (Q06710 whole entry): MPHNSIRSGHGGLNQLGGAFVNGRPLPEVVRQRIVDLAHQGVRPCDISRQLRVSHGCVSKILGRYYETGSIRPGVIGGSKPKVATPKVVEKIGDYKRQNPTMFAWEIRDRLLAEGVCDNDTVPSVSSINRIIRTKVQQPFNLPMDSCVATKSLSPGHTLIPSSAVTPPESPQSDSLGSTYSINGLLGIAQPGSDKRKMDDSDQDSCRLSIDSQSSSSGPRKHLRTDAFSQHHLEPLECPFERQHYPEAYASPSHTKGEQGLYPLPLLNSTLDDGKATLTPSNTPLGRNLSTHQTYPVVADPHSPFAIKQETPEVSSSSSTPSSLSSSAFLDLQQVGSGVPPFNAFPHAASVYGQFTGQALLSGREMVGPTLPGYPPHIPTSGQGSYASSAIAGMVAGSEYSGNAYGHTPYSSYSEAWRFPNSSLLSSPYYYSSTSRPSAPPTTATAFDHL

[27] = toxicity toward immortalized ovarian surface epithelium – cell-based, plate reader, dry powder samples, cytotoxicity control for PAX8 inhibitor project, dose response (AID 743045); type: functional
[28] = OVCAR-3 cell viability loss – plate reader, dry powder samples, PAX8 inhibitor project, dose response (AID 743044); type: functional, cell-based
[29] = general cell-killing toxicity readout – plate reader, dry powder samples, cytotoxicity control for PAX8 inhibitor project, dose response (AID 743021); type: functional, cell-based
[30] = Dd2 parasite growth inhibition in erythrocytes – SYBR Green, dry powder samples, set 9, dose response (AID 1159568); type: functional, cell-based
[31] = IGROV1 cell killing – plate reader, dry powder samples, PAX8 inhibitor project, dose response (AID 743043); type: functional, cell-based; details: IGROV-1
[32] = glucagon-like peptide-1 release potency in STC-1, concentration-response, half-maximal inhibitory concentration in the STC-1 line (AID 1117345); type: functional, cell-based
[33] = Potency on glucagon-like peptide 1 release, dose-response in NCI-H716 cell line, half maximal inhibitory concentration (AID 1117344); type: functional, cell-based

In the case of CCOc1ccc2c(c1)C(=NNC(=O)c1ccncc1)c1cc(OCC)ccc1-2, the EC50 [1] is reported as 0.825 µM (active), the EC50 [2] is reported as > 60 µM (inconclusive) and the EC50 [3] is reported as 3.66 µM (active). For the same compound, the EC50 [4] was 0.894 µM (active) and the AC50 [5] was 26 µM (active).

In the case of Cc1cccc(N2CCN(CC(=O)NCC3CCCCC3)CC2)c1C, the IC50 [6] is reported as > 100 µM (active).

For Cc1sc(NC(=O)C2C3CCC(O3)C2C(=O)O)c(C(=O)OC(C)C)c1-c1ccc(Cl)cc1 (centres undefined), the AC50 [7] was 22.4 µM (inconclusive), the IC50 [8] was 10.1 µM (active) and the IC50 [9] was > 20 µM (inactive). The AC50 [10] was 15.8 µM (inconclusive).

For c1ccc(-c2nnc(SCCC3OCCCO3)o2)cc1, the EC50 [11] was 0.852 µM (active), the IC90 [12] was 8 µM (active) and the IC90 [13] was 8 µM (active). The EC50 [14] was 0.936 µM (active), the AC50 [15] was “inconclusive” and the EC50 [16] was 0.604 µM (active). For the same compound, the EC50 [17] was 1.55 µM (active), the AC50 [18] was > 52 µM (inactive) and the IC90 [19] was 62 µM (active).

In the case of O=C(Nc1ccccc1Cl)c1cccc(NC(=O)C2CCCC2)c1, the IC50 [20] is reported as 5.78 µM (active) and the IC50 [21] is reported as 0.202 µM (active).

For Cc1c(C(=O)C2=C(O)C(=O)N(CCN3CCOCC3)C2c2ccco2)cnn1-c1ccccc1 (centres undefined), the IC50 [22] was 21.1 µM (inactive).

In the case of Cc1ccc(-c2ccc3c(c2)O[C@H](CN(C)C(=O)CC2CC2)[C@H](C)CN([C@@H](C)CO)S3(=O)=O)cc1, the AC50 [23] is reported as 10.4 µM (active).

In the case of Fc1cccc(CN2C[C@@H]3N[C@H](C2)[C@@H]3c2ccc(-c3cccc(F)c3)cc2)c1, the AC50 [24] is reported as 4.43 µM (active), the AC50 [25] is reported as 27 µM (active) and the AC50 [26] is reported as 23.4 µM (active). For the same compound, the AC50 [27] was 27.6 µM (active), the AC50 [28] was 22.1 µM (active) and the AC50 [29] was 19.5 µM (active).

For C[C@@H]1CN([C@@H](C)CO)C(=O)Cc2cc(NC(=O)C3CCCCC3)ccc2O[C@H]1CN(C)Cc1ccc(Cl)c(Cl)c1, the AC50 [26] was 5.39 µM (active), the AC50 [30] was 2.76 µM (active) and the AC50 [31] was 28.6 µM (active).

With Cc1cc(OCCOCC[N+](C)(C)Cc2ccccc2)ccc1C(C)(C)CC(C)(C)C the IC50 [32] was > 40 µM (inactive) and the IC50 [33] was 12 µM (inactive).
